Consider 17 compounds from ChEMBL document CHEMBL1201862, “PubChem BioAssay data set” (2004).

Active and inactive are the calls of the source. Bounds are passed on as bounds.

What is called AC50 is the concentration at which the activity in the assay is half-maximal. As a reminder, the IC50 is the concentration needed to halve the response being measured. The term CC50 denotes the concentration giving 50% cytotoxicity. What is called EC50 is the concentration at which the effect is half-maximal.

The test system of one experiment is HEK293. The experiment in a line: EBV LMP1 TES2 canonical NF-kB signalling blockers – cell-based, HEK293, luciferase, cherry-pick, dose response (AID 588343). The conditions noted are these: Homo sapiens. It counts as functional.
Experiment [1] in a line: reduction of Shn3 3'UTR-driven luciferase in osteoblasts – cell-based, Clone20 osteoblasts, firefly luciferase, cherry-picked, dose response (AID 624132).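 Further: firefly luciferase luminescence from reporter carrying the Shn3 3'UTR in osteoblasts.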 It counts as functional.
Experiment [2] can be described thus: loss of viability in HepG2 cells – cell-based, CellTiter-Glo, cherry-picked, cytotoxicity control for Shn3 inhibitor project, dose response (AID 624134). It counts as functional. A general note: In ATP-based viability assays light output follows the ATP content of the culture.
The nature of experiment [3]: non-specific 3'UTR reporter inhibition in Clone20-Shn3RL – cell-based, Renilla luciferase, cherry-picked, counter-screen for Shn3 inhibitor project, dose response (AID 624133). In kind it is functional. (In general: The purpose of a counterscreen is to sort out artefacts and off-target activity.)
A short description of experiment [4]: blockers of HIV-1 envelope-mediated cell-cell fusion – cherry-pick, dose response (AID 652057). In kind it is functional, cell-based.
Experiment [5] can be described thus: blockers of HIV-1 ZM109 envelope-driven cell-cell fusion – HeLa effector, CEM target cells, luciferase, cherry-pick, dose response (AID 652058).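 Further: luciferase signal from HIV-1 Env mediated cell-cell fusion of effector and target cells.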 In kind it is functional, cell-based.
Experiment [6] in a line: off-target signal loss in HeLa-CEM21 co-culture – HeLa F-luc CTL cells, cherry-picked, counter-screen for HIV-1 Env fusion inhibitor project, dose response (AID 652040).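 Further: potency for signal decrease marking cytotoxic or nonspecific inhibition.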 It counts as functional, cell-based.
Experiment [7] can be described thus: HIV-1 AD8 envelope cell-cell fusion blockers – cherry-pick, dose response (AID 652062).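 Further: luciferase signal from cell-cell fusion driven by HIV-1 clade B AD8 Env; potency is for inhibitors of fusion seen as a drop in luminescence.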 In kind it is functional, cell-based.
The target in experiment [8] is COUP transcription factor 2 (Homo sapiens, UniProt P24468). The experiment in a line: Luminescence-based cell-based high throughput dose response assay to identify inhibitors of COUP-TFII (NR2F2). It counts as functional.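 Further: HEK293 cells transiently cotransfected with COUP-TFII expression vector and reporter; luciferase reporter luminescence driven by COUP-TFII from the pX2-168 reporter plasmid.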
Sequence of COUP transcription factor 2 (P24468 whole entry): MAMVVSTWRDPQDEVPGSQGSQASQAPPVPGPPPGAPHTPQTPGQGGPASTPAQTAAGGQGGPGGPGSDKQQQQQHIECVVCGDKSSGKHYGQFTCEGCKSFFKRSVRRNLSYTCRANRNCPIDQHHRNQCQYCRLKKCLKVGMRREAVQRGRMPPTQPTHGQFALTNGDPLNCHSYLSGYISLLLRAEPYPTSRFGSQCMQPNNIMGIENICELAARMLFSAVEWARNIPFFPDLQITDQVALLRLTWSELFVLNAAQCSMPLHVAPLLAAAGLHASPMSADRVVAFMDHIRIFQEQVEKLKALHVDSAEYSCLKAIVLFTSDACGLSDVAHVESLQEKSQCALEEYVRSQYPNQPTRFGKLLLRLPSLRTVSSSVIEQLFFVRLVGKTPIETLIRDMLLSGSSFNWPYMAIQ
A short description of experiment [9]: viability of uninfected HEp-2 cells – cell-based, HTS, cytotoxicity control for RSV inhibitor project, dose response (AID 2410). In kind it is functional. The note with it: human respiratory syncytial virus.
A further experiment concerns Vero. The experiment in a line: cells. In kind it is functional, cell-based. The note with it: Chlorocebus sabaeus.
Experiment [10] is described as follows: cells.
The target of experiment [11] is Peroxisome proliferator-activated receptor gamma/Nuclear receptor corepressor 2 (Homo sapiens, UniProt P37231+Q9Y618). The experiment in a line: Counterscreen for NR2E3 inverse agonists: TR-FRET-based biochemical high throughput dose response assay to identify inverse agonists of the interaction between peroxisome proliferator-activated receptor gamma (PPARg) and nuclear receptor co-repressor 2 (NCOR2). In kind it is functional.

Experiment [12] has as its target Photoreceptor-specific nuclear receptor (Homo sapiens, UniProt Q9Y5X4). The experiment in a line: ligands suppressing NR2E3 nuclear receptor activity – biochemical, TR-FRET, dose response (AID 463256). In kind it is functional. (In general: In TR-FRET formats the signal depends on donor and acceptor labels being close together.)
Experiment [13] is described as follows: Luminescence Cell-Based Dose Confirmation HTS to Identify Activators of 5'UTR Stem-Loop Driven Alpha-Synuclein mRNA Translation in H4 Neuroglioblastoma Cells. [Related pubchem assays: 1829 (Project Summary), 1814 (Primary HTS)]. It counts as functional.
The nature of experiment [14]: Luminescence Cell-Based Dose Response HTS to Identify Activators of Luciferase Translation or Activity in H4 […] Cells. [Related pubchem assays: 1829 (Project Summary), 1814 (Primary HTS)]. It counts as functional.
The subject of the next experiment is H4. The experiment in a line: Luminescence Cell-Based Dose Response HTS to Identify Activators of 5'UTR Stem-Loop Driven Prion Protein mRNA Translation in H4 Neuroglioblastoma Cells. [Related pubchem assays: 1829 (Project Summary), 1814 (Primary HTS)]. It counts as functional. The note with it: Homo sapiens.
For experiment [15], the target named is Mitogen-activated protein kinase 10 (Homo sapiens, UniProt P53779). The experiment in a line: Dose response biochemical screening assay for inhibitors of c-Jun N-Terminal Kinase 3 (JNK3). [Related pubchem assays: 746 ].
Sequence of Mitogen-activated protein kinase 10 (P53779 whole entry): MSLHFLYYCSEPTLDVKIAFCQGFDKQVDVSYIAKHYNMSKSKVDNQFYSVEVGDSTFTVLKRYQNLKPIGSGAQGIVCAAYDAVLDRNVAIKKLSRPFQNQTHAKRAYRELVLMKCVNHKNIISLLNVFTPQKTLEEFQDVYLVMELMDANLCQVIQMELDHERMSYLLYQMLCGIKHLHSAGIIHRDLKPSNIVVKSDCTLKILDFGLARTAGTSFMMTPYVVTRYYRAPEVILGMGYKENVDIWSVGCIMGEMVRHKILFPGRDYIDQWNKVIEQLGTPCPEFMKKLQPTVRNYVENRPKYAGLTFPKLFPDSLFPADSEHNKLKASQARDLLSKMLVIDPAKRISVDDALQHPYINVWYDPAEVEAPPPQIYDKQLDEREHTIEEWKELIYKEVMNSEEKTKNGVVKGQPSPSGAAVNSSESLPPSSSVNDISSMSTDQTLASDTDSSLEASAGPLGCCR
A short description of experiment [16]: Trypanosoma cruzi growth suppression in host cells – NIH3T3 host cells, beta-gal luminescence, confirmation (AID 2044).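 Further: intracellular parasites grown in NIH/3T3 mouse fibroblasts as host cells; luminescent beta-galactosidase reporter signal from transgenic T. cruzi replicating inside host cells; inhibitors lower the luminescence signal.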 It counts as functional, cell-based.
Experiment [17] can be described thus: NIH3T3 cell viability loss – ATP luminescence, mouse fibroblasts, counter-screen, dose response (AID 2010).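 Further: cells exposed to compound for about 90 hours before reading.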 It counts as functional, cell-based.
The nature of experiment [18]: cells. This is another data set of the same source.
For experiment [19], the target named is Voltage-gated inwardly rectifying potassium channel KCNH2 (Homo sapiens, UniProt Q12809). The experiment in a line: concentration-dependent hERG rescue from blockers – cell-based, thallium flux, dose response (AID 2121). It counts as ADME.
Sequence of Voltage-gated inwardly rectifying potassium channel KCNH2 (Q12809 whole entry): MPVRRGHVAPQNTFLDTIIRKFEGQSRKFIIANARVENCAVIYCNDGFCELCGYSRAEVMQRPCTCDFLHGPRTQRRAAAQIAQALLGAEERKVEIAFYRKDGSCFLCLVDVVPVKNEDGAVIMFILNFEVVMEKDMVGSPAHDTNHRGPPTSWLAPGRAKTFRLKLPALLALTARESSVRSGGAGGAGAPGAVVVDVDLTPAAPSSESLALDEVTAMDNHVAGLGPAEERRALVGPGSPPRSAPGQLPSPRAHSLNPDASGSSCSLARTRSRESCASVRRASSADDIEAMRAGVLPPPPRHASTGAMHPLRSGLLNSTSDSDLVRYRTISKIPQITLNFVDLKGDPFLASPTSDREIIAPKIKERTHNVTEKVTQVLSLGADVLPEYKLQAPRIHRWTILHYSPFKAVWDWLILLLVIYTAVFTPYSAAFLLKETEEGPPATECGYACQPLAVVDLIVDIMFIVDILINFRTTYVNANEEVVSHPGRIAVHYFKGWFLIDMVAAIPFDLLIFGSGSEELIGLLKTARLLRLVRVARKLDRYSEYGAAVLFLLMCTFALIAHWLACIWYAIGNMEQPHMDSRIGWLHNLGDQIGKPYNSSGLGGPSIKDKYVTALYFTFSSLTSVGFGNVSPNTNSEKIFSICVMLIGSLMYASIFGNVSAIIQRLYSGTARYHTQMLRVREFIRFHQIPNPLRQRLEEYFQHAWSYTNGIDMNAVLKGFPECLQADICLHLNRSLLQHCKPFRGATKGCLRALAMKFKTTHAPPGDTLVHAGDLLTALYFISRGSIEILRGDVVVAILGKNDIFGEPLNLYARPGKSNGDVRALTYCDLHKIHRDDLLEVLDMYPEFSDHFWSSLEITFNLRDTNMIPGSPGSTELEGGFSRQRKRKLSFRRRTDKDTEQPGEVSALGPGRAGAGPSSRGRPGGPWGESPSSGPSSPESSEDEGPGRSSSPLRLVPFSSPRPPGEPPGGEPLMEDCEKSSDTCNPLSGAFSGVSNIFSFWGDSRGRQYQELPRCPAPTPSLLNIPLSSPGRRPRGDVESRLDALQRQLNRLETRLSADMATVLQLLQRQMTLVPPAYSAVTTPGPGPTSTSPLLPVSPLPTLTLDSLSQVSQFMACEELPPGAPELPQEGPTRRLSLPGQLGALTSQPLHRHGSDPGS
Experiment [20] addresses NAD-dependent protein deacylase sirtuin-5, mitochondrial (Homo sapiens, UniProt Q9NXA8). The experiment in a line: sirtuin-5 deacylation blockers, concentration series – biochemical, fluorescence imaging, cherry-pick, set 5, dose response (AID 720591).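 Further: desuccinylation of succinyl peptide AMC substrate read as fluorescence after trypsin release; potency of inhibitors that lower fluorescence and may act on trypsin instead.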
The target of experiment [21] is Heat shock protein HSP 90-alpha (Homo sapiens, UniProt P07900). The experiment in a line: Luminescence-based dose response biochemical high throughput screening assay for inhibitors of the Heat Shock Protein 90 (HSP90). [Related pubchem assays: 1831 (Summary AID.), 1846 (Confirmation screen.), 1789 (Primary screen.)].
The next experiment concerns the target Large T antigen (Simian virus 40, UniProt P03070). It counts as functional, Betapolyomavirus macacae.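 Further: Confirmatory-stage PubChem screen for compounds that inhibit SV40 T antigen.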
The target of another experiment is Protein Tat (Human immunodeficiency virus type 1 group M subtype B (isolate HXB2)(HIV-1), UniProt P04608). In kind it is functional.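 Further: tat binding to TAR RNA read out by fluorescence polarization.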
Sequence of Protein Tat (P04608 whole entry): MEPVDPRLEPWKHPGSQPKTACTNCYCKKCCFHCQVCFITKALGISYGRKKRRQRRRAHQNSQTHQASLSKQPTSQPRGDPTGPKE
Experiment [22] can be described thus: viability loss in Vero cells – cytotoxicity control for Vif-APOBEC3G degradation inhibitor project, dose response (AID 1117358). It counts as functional. The note with it: Vero.
The target in another experiment is Cytochrome P450 2D6 (Homo sapiens, UniProt P10635).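 Further: CYP2D6 member of a cytochrome P450 panel assay.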
Sequence of Cytochrome P450 2D6 (P10635 whole entry): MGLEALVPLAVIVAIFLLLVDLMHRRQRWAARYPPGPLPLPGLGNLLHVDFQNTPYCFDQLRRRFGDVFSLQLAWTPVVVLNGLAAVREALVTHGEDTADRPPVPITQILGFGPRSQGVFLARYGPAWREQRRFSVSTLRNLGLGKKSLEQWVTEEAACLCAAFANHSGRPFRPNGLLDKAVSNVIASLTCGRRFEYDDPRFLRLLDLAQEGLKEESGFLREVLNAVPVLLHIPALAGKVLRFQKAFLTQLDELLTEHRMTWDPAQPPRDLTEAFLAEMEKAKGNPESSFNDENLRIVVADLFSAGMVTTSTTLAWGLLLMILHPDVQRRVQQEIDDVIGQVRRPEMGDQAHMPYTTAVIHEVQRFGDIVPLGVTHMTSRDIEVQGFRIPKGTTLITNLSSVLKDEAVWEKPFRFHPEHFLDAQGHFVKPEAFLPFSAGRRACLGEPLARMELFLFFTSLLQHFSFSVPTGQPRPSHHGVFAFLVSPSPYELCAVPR
Experiment [23] is described as follows: growth inhibition of yeast DHODH-expressing 3D7 parasites – SYBR Green, dry powder samples, dose response (AID 1159570).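 Further: parasite growth measured after 72 hours of compound exposure.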 It counts as functional, cell-based.
The nature of experiment [24]: toxicity to human HepG2 hepatoma cells – cell-based, plate reader, dry powder samples, cytotoxicity control, dose response (AID 1159569).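 Further: inhibitor potency with signal falling toward the positive control level.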 It counts as functional.
Experiment [25] in a line: P. falciparum Dd2 growth inhibitors, dose response, SYBR Green, cherry-picked samples (AID 1159567). It counts as functional, cell-based.
A short description of experiment [26]: Dd2 malaria parasite growth inhibition potency – SYBR Green, dry powder samples, dose response (AID 1159566).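 Further: potency for growth inhibition with lower SYBR green DNA signal.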 In kind it is functional, cell-based.
Experiment [27] in a line: growth inhibition of PfATP4-mutant resistant parasites – NITD609-resistant line, SYBR Green, dry powder, dose response (AID 1159571).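 Further: parasites synchronized at ring stage by sorbitol before testing.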 It counts as functional, cell-based.
Experiment [28] in a line: toxicity to human hepatoma HepG2 cells – cell-based, cherry-picked samples, cytotoxicity control, dose response (AID 1159577). It counts as functional.
A short description of experiment [29]: rise of 2N DNA cells, HeLa – IC50, dose response (AID 1117349). It counts as functional, cell-based.
Experiment [30] in a line: CellTiter-Glo luminescence survival assay, SW480 colon tumor line, concentration-response curve, half-maximal inhibitory concentration (AID 1117338). In kind it is functional.
Experiment [31] is described as follows: RKO cell viability reduction, dose response, CellTiter-Glo luminescence (AID 1117322). It counts as functional.
Experiment [32] is described as follows: cytotoxicity toward HCT116 cells – cell-based, CellTiter-Glo luminescence, IC50, dose response (AID 1117332). In kind it is functional. The note with it: HCT-116.
Experiment [33] can be described thus: cytotoxicity toward Colo320 cells – cell-based, CellTiter-Glo luminescence, IC50, dose response (AID 1117334). It counts as functional. The conditions noted are these: COLO 320.
Experiment [34] is described as follows: rise of 4N DNA cells, HeLa – IC50, dose response (AID 1117351). In kind it is functional, cell-based.
The nature of experiment [35]: cytotoxicity toward HT-29 cells – cell-based, CellTiter-Glo luminescence, IC50, dose response (AID 1117330). In kind it is functional.
Experiment [36] can be described thus: Reduced DLD-1 viability, concentration-response, CellTiter-Glo luminescence (AID 1117352). It counts as functional.
Experiment [37] in a line: HCT116 cell viability decrease, GSK3B pretreatment – CellTiter-Glo, IC50, dose response (AID 1117339). In kind it is functional. The conditions noted are these: HCT-116.

Sequence of NAD-dependent protein deacylase sirtuin-5, mitochondrial (Q9NXA8 whole entry): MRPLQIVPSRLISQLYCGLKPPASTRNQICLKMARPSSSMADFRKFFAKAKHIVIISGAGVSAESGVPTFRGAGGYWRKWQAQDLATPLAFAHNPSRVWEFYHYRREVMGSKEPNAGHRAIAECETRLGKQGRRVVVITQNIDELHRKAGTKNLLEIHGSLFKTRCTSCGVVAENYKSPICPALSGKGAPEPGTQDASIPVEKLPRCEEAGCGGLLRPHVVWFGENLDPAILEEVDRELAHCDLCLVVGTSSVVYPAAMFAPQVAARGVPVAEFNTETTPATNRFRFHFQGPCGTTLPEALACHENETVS
Sequence of Photoreceptor-specific nuclear receptor (Q9Y5X4 whole entry): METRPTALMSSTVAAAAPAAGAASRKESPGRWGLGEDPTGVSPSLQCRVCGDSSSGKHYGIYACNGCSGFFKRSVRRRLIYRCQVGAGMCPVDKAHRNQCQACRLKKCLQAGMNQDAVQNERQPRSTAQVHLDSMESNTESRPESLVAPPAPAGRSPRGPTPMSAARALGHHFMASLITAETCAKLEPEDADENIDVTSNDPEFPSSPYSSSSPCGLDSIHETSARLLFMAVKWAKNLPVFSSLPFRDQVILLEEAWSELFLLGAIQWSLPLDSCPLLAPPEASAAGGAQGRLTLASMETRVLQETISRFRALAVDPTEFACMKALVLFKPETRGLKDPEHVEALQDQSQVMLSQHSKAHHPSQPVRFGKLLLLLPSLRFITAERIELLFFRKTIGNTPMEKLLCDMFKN
Sequence of Large T antigen (P03070 whole entry): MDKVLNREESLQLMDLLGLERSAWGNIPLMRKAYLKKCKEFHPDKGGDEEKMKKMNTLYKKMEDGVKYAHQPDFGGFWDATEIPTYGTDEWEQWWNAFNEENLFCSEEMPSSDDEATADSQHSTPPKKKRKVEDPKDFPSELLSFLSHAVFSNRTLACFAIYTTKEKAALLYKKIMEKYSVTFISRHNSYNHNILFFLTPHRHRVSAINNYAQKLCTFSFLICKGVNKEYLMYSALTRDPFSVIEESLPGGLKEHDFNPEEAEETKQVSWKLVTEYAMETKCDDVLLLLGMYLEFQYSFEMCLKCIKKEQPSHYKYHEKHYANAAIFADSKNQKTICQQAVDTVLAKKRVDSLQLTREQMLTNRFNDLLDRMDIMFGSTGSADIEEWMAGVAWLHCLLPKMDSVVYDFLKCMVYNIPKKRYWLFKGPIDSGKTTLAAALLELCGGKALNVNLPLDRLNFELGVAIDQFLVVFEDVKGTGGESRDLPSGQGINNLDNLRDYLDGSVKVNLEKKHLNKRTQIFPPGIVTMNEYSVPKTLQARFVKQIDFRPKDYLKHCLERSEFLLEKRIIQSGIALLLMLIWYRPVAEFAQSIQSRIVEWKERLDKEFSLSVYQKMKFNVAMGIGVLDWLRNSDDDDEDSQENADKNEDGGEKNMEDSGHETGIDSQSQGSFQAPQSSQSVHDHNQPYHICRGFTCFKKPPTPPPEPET

For `COc1ccc(CNc2ncnc3ccccc23)cc1`, the AC50 with HEK293 was 33.1 µM (active); in experiment [1], 0.674 µM (active); in experiment [2], 3.67 µM (active); in [3], 5.4 µM (active); in experiment [4], 36.2 µM (active); in [5], 24.9 µM (active). In addition, the results for the AC50 in experiment [6] and in experiment [7] were > 70 µM (inactive) and 5.24 µM (active), respectively. For the same compound, the IC50 in experiment [8] is 10.7 µM (inactive).

For the compound `Cc1nn(Cc2c(Cl)cccc2Cl)c(C)c1NC(=O)c1cc(C(C)C)on1`, the CC50 in [9] was 16.8 µM (active). In addition, the IC50 was 10.5 µM (active) in the experiment with Vero and 11.3 µM (active) in the experiment “cells [10]”.

Turning to `COc1ccc2cc3cc(C(=O)NCc4cccs4)oc3nc2c1`, the IC50 in experiment [11] was 12.9 µM (not active); in experiment [12], 10.7 µM (not active).

As for `c1ccc(CNc2ncnc3c2cnn3-c2ccccc2)cc1`, the EC50 was > 120 µM (not active) in [13], 3.43 µM (active) in experiment [14] and > 120 µM (not active) in the experiment on H4. Also, in experiment [15], the IC50 is reported as 75.8 µM (not active).

`CCOC(=O)C1CCCN(Cc2ccc(OCc3ccccc3)c(OC)c2)C1` (stereo not drawn): the EC50 in experiment [16] was < 0.1 µM (active); in experiment [17] it was > 60 µM (not active); in the experiment “cells [18]” it was 0.01 µM (active).

Regarding `Cc1ccc(C(=O)CC(=O)COc2ccc(Cl)cc2C)cc1`, the 50% effective concentration (EC50) in experiment [19] was 0.82 µM (active).

For the compound `CC(C)(C)NC(=O)CSc1nc2cccnc2n1C1CCCCC1`, in [20], the AC50 was > 30 µM (inactive).

For the compound `Cc1ccc2c(C)nc(NC3=NCN(Cc4ccccc4)CN3)nc2c1`, the IC50 in experiment [15] is > 93.1 µM (not active).

Consider `O=S(=O)(Cc1ccccc1)N(O)c1ccccc1`, for which, in experiment [21], the IC50 is 0.913 µM (active).

With `CCN(C(=O)CN1CCN(c2ccc(O)cc2)CC1)c1c(N)n(Cc2ccccc2)c(=O)[nH]c1=O`, the IC50 is 7.74 µM (active) on Large T antigen and 68.5 µM (inconclusive) at Protein Tat. Besides, the 50% cytotoxic concentration (CC50) in experiment [22] is > 40 µM (active).

On to `CCC(C)N1C(=O)S/C(=C/c2ccc(Sc3nc4ccccc4[nH]3)o2)C1=O` (stereo not drawn), for which, in experiment [22], the CC50 is 28.7 µM (active). The AC50 at Cytochrome P450 2D6 was 3.98 µM (inconclusive).

As to `CC(C)C[C@H](NC(=O)C1CCN(C(=O)[C@H](Cc2ccccc2)NC(=O)OC(C)(C)C)CC1)C(=O)O`, in [20], the AC50 was > 30 µM (inactive).

On to `Nc1nnnn1/N=C/c1ccc(O)cc1`, for which the IC50 in “cells [10]” is 2.58 µM (active).

For the compound `C[C@@H]1CN([C@@H](C)CO)C(=O)c2c(c3ccccc3n2C)-c2ccccc2CO[C@@H]1CN(C)C(=O)Nc1cccc(Cl)c1Cl`, the AC50 in experiment [23] was 1.62 µM (active); in experiment [24], 23.5 µM (active); in experiment [25] it was 1.52 µM (active); in experiment [26], 0.85 µM (active); in [27], 0.572 µM (active).

Take `OC[C@@H]1Nc2ccc(-c3cccc(F)c3)cc2[C@@H]2[C@H]1CCN2Cc1ccncc1`: the AC50 was 2.02 µM (active) in [23]; 29.5 µM (active) in [24]; 1.27 µM (active) in experiment [25]; 0.638 µM (active) in [26]; 27.6 µM (active) in [28]; 0.814 µM (active) in [27].

As to `CC(C)(C)[C@H]1CC[C@H](CC2=C(O)C(=O)c3ccccc3C2=O)CC1` [BUPARVAQUONE], the IC50 in [29] was > 10 µM (inactive); in experiment [30], 0.205 µM (active); in experiment [31], 0.133 µM (active); in experiment [32], 0.227 µM (active); in experiment [33] it was 0.255 µM (active); in experiment [34], > 10 µM (inactive). Moreover, the IC50 in [35] was 3.39 µM (active); in experiment [36], 0.218 µM (active).

`COc1cccc2c1C(=O)c1c(O)c3c(c(O)c1C2=O)C[C@@](O)(C(=O)CO)C[C@@H]3O[C@H]1C[C@H](N)[C@H](O[C@@H]2CCCCO2)[C@H](C)O1` [PIRARUBICIN]: the IC50 in experiment [29] was 0.0795 µM (active); in experiment [31] it was 1.01 µM (active); in experiment [32], 0.911 µM (active); in experiment [33] it was 2.01 µM (active); in [34], 0.0806 µM (active); in experiment [35], > 20 µM (inactive). For the same compound, the IC50 in experiment [37] is 1.28 µM (active).
